Measurements taken from patent US20220289685A1, “ANTIMALARIAL HEXAHYDROPYRIMIDINE ANALOGUES” (UCB BIOPHARMA SRL, priority 2019, published 2022).
Where a name gives a salt, the structure may show the parent alone.

What follows are compounds tested on Plasmodium falciparum 3D7 strain (assay: P. falciparum 3D7 asexual blood stage assay (SYBR green readout)). Details: Plasmodium falciparum, 3D7, Erythrocyte, 72 h.
Assay type: cell-based
Method in brief: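 P. falciparum 3D7 in A+ erythrocytes (5% haematocrit, 0.5% parasitaemia) exposed 72 h at 37 °C under 1% O2/3% CO2 to 20-point 1.5-fold titrations, 50,000–15 nM in 0.5% DMSO. SYBR green lysis overnight, fluorescence 485/528 nm; normalized to mefloquine and DMSO, EC50 from biphasic two-site fit.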

Structure (SMILES) | IC50 [nM]
C[C@@H]1C[C@H](N2C(=N)N[C@](C)(c3cccc(NC(=O)c4cccc(C#N)c4)c3Cl)CC2=O)C[C@H](C)O1 (relative stereo) [Example 24, N-(2-Chloro-3-{(4S)-1-[(2S*,6R*)-2,6-dimethyltetrahydropyran-4-yl]-2-imino-4-methyl-6-oxohexahydro-pyrimidin-4-yl]phenyl)-3-cyano-benzamide hydrochloride] | 28
C[C@@H]1C[C@H](N2C(=N)N[C@](C)(c3cccc(NC(=O)c4cnccn4)c3Cl)CC2=O)CCO1 (relative stereo) [Example 14, N-(2-Chloro-3-{(4S)-2-imino-4-methyl-1-[(2R*,4R*)-2-methyl-tetrahydropyran-4-yl]-6-oxo-hexahydropyrimidin-4-yl}phenyl)-pyrazine-2-carboxamide hydrochloride] | 14
C[C@@H]1C[C@H](N2C(=N)N[C@](C)(c3cccc(NC(=O)c4ccc(OC(F)(F)F)cn4)c3Cl)CC2=O)CCO1 (relative stereo) [Example 47, N-(2-Chloro-3-{(4S)-2-imino-4-methyl-1-[(2R*,4R*)-2-methyl-tetrahydropyran-4-yl]-6-oxo-hexahydropyrimidin-4-yl]phenyl)-5-(trifluoromethoxy)pyridine-2-carboxamide trifluoroacetic acid salt] | 242
C[C@@H]1C[C@H](N2C(=N)N[C@](C)(c3cccc(NC(=O)c4ccc(F)cc4F)c3Cl)CC2=O)CCO1 (relative stereo) [Example 4, N-(2-Chloro-3-{(4S)-2-imino-4-methyl-1-[(2R*,4R*)-2-methyl-tetrahydropyran-4-yl]-6-oxo-hexahydropyrimidin-4-yl]phenyl)-2,4-difluorobenzamide hydrochloride] | 23
C[C@@H]1C[C@H](N2C(=N)N[C@](C)(c3cccc(NC(=O)c4cccc(C#N)c4)c3Cl)CC2=O)CCO1 (relative stereo) [Example 20, N-(2-Chloro-3-{(4S)-2-imino-4-methyl-1-[(2R*,4R*)-2-methyl-tetrahydropyran-4-yl]-6-oxo-hexahydropyrimidin-4-yl}phenyl)-3-cyanobenzamide hydrochloride] | 8
C[C@@H]1C[C@H](N2C(=N)N[C@](C)(c3cccc(NC(=O)c4cccnc4C(F)(F)F)c3Cl)CC2=O)CCO1 (relative stereo) [Example 61, N-(2-Chloro-3-{(4S)-2-imino-4-methyl-1-[(2R*,4R*)-2-methyl-tetrahydropyran-4-yl]-6-oxo-hexahydropyrimidin-4-yl}phenyl)-2-(trifluoromethyl)pyridine-3-carboxamide hydrochloride] | 442
Cc1cc(Cl)cc(C(=O)Nc2cccc([C@]3(C)CC(=O)N([C@@H]4CCO[C@H](C)C4)C(=N)N3)c2Cl)c1 (relative stereo) [Example 22, 3-Chloro-N-(2-chloro-3-{(4S)-2-imino-4-methyl-1-[(2R*,4R*)-2-methyltetrahydropyran-4-yl]-6-oxo-hexahydropyrimidin-4-yl}phenyl)-5-methylbenzamide hydrochloride] | 9
C[C@@H]1C[C@H](N2C(=N)N[C@](C)(c3cccc(NC(=O)c4cc(Cl)cc(C#N)c4)c3Cl)CC2=O)CCO1 (relative stereo) [Example 77, 3-Chloro-N-(2-chloro-3-{(4S)-2-imino-4-methyl-1-[(2R*,4R*)-2-methyltetrahydropyran-4-yl]-6-oxo-hexahydropyrimidin-4-yl}phenyl)-5-cyanobenzamide hydrochloride] | 7
Cc1ccc(C(=O)Nc2cccc([C@]3(C)CC(=O)N([C@@H]4CCO[C@H](C)C4)C(=N)N3)c2Cl)nn1 (relative stereo) [Example 54, N-(2-Chloro-3-{(4S)-2-imino-4-methyl-1-[(2R*,4R*)-2-methyl-tetrahydropyran-4-yl]-6-oxo-hexahydropyrimidin-4-yl}phenyl)-6-methylpyridazine-3-carboxamide hydrochloride] | 170
C[C@@H]1C[C@H](N2C(=N)N[C@](C)(c3cccc(NC(=O)c4ccccn4)c3Cl)CC2=O)CCO1 (relative stereo) [Example 6, N-(2-Chloro-3-{(4S)-2-imino-4-methyl-1-[(2R*,4R*)-2-methyl-tetrahydropyran-4-yl]-6-oxo-hexahydropyrimidin-4-yl}phenyl)-pyridine-2-carboxamide hydrochloride] | 33
COc1ccncc1C(=O)Nc1cccc([C@]2(C)CC(=O)N([C@@H]3CCO[C@H](C)C3)C(=N)N2)c1Cl (relative stereo) [Example 45, N-(2-Chloro-3-{(4S)-2-imino-4-methyl-1-[(2R*,4R*)-2-methyl-tetrahydropyran-4-yl]-6-oxo-hexahydropyrimidin-4-yl]phenyl)-4-methoxypyridine-3-carboxamide trifluoroacetic acid salt] | 156
C[C@@H]1C[C@H](N2C(=N)N[C@](C)(c3cccc(NC(=O)c4cccc(C(F)(F)F)c4)c3Cl)CC2=O)CCO1 (relative stereo) [Example 41, N-(2-Chloro-3-{(4S)-2-imino-4-methyl-1-[(2R*,4R*)-2-methyl-tetrahydropyran-4-yl]-6-oxo-hexahydropyrimidin-4-yl}phenyl)-3-(trifluoromethyl)benzamide trifluoroacetic acid salt] | 15
C[C@@H]1C[C@H](N2C(=N)N[C@](C)(c3cccc(NC(=O)c4cccnn4)c3Cl)CC2=O)CCO1 (relative stereo) [Example 19, N-(2-Chloro-3-{(4S)-2-imino-4-methyl-1-[(2R*,4R*)-2-methyl-tetrahydropyran-4-yl]-6-oxo-hexahydropyrimidin-4-yl]phenyl)-pyridazine-3-carboxamide hydrochloride] | 31
Cc1nonc1C(=O)Nc1cccc([C@]2(C)CC(=O)N([C@@H]3CCO[C@H](C)C3)C(=N)N2)c1Cl (relative stereo) [Example 17, N-(2-Chloro-3-{(4S)-2-imino-4-methyl-1-[(2R*,4R*)-2-methyl-tetrahydropyran-4-yl]-6-oxo-hexahydropyrimidin-4-yl}phenyl)-4-methyl-1,2,5-oxadiazole-3-carboxamide hydrochloride] | 12
C[C@@H]1C[C@H](N2C(=N)N[C@](C)(c3cccc(NC(=O)c4ccc(F)c(F)c4)c3Cl)CC2=O)CCO1 (relative stereo) [Example 36, N-(2-Chloro-3-{(4S)-2-imino-4-methyl-1-[(2R*,4R*)-2-methyl-tetrahydropyran-4-yl]-6-oxo-hexahydropyrimidin-4-yl]phenyl)-3,4-difluorobenzamide trifluoroacetic acid salt] | 33

Same assay, conditions: Plasmodium falciparum, Erythrocyte; P. falciparum 3D7 in human erythrocytes, 72 h incubation, SYBR green fluorescence; read-out: IC50

IC50 [nM] | Structure (SMILES)
13 | C[C@@H]1C[C@H](N2C(=N)N[C@](C)(c3cccc(NC(=O)c4cc(F)c(F)cc4F)c3Cl)CC2=O)CCO1 (relative stereo) [Example 64, N-(2-Chloro-3-{(4S)-2-imino-4-methyl-1-[(2,R*,4R*)-2-methyl-tetrahydropyran-4-yl]-6-oxo-hexahydropyrimidin-4-yl}phenyl)-2,4,5-trifluorobenzamide hydrochloride]
55 | C[C@@H]1C[C@H](N2C(=N)N[C@](C)(c3cccc(NC(=O)c4nccn5ccnc45)c3Cl)CC2=O)CCO1 (relative stereo) [Example 48, N-(2-Chloro-3-{(4S)-2-imino-4-methyl-1-[(2R*,4R*)-2-methyl-tetrahydropyran-4-yl]-6-oxo-hexahydropyrimidin-4-yl}phenyl)-imidazo[1,2-alpyrazine-8-carboxamidetrifluoroacetic acid salt]
